Data set [1] has as its target T1, Tyrosine-protein phosphatase non-receptor type 1 (Homo sapiens, UniProt P18031).
T1 sequence (P18031 whole entry): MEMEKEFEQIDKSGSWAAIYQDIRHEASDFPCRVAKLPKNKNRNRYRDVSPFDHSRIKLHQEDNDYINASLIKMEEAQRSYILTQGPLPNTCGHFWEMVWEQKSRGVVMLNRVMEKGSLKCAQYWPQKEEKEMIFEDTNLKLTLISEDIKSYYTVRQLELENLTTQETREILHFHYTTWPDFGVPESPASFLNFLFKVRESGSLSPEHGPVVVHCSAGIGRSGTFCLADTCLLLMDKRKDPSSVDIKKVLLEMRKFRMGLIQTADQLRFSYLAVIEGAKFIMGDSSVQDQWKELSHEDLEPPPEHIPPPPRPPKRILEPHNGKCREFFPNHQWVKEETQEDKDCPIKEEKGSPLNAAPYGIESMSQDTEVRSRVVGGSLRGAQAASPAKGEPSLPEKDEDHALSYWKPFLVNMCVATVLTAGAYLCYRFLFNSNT
As to the kind of experiment: Inhibition of PTP1B.

The target in data set [2] is T2, Tyrosine-protein phosphatase non-receptor type 2 (Homo sapiens, UniProt P17706).
T2 sequence (P17706 whole entry): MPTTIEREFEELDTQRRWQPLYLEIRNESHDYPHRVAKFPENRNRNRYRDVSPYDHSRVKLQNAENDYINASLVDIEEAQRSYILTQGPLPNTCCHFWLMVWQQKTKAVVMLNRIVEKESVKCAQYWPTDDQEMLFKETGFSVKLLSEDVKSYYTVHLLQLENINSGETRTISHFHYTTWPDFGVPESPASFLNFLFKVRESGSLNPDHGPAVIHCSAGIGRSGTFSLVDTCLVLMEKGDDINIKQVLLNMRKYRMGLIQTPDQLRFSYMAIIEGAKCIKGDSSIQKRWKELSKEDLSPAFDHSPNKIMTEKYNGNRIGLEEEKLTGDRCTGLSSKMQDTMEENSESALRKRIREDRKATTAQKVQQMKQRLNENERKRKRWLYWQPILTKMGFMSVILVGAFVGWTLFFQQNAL
The data set is described as follows: Inhibition of TC-PTP.

The nature of data set [3]: Inhibition of YPTP1.
Data set [4] is described as follows: Inhibition of PTP YOP.
The nature of data set [5]: Inhibition of PTP LAR-D1.
Data set [6] has as its target Tyrosine-protein phosphatase non-receptor type 6 (Homo sapiens, UniProt P29350). The data set is described as follows: Inhibition of PTP SHP1.
The subject of data set [7] is Mus musculus. The data set is described as follows: Toxicity in lungs of high fat diet fed mouse C57BL/6J Jms Slc at 160 mg/day/kg for 4 weeks administered with diet. The format is organism-based, Lung. The note with it: in vivo, po, 672 h.
Data set [8] relates to Mus musculus. The data set is described as follows: Reduction in blood glucose level in high fat diet fed C57BL/6J Jms Slc mouse at 160 mg/day/kg administered with diet measured after 27 days. The format is functional, organism-based.
In data set [9] the test system is Mus musculus. The data set is described as follows: Normalization of blood glucose level in high fat diet fed C57BL/6J Jms Slc mouse at 160 mg/day/kg administered with diet. The format is functional, organism-based.
Data set [10] deals with Mus musculus. As to the kind of experiment: Toxicity in liver of high fat diet fed C57BL/6J Jms Slc mouse at 160 mg/day/kg for 4 weeks administered with diet. The following applies: in vivo, po, 672 h. The format is organism-based.
The subject of data set [11] is Mus musculus. As to the kind of experiment: Toxicity in kidney of high fat diet fed C57BL/6J Jms Slc mouse at 160 mg/day/kg for 4 weeks administered with diet. Format: organism-based. The following applies: in vivo, po, 672 h.

Active and inactive are the calls of the source. The calls are words filed in the database; no cut-off is given here.

What is called IC50 is the point on the concentration scale where inhibition reaches its midpoint.

Tyrosine-protein phosphatase non-receptor type 6, sequence (P29350 whole entry): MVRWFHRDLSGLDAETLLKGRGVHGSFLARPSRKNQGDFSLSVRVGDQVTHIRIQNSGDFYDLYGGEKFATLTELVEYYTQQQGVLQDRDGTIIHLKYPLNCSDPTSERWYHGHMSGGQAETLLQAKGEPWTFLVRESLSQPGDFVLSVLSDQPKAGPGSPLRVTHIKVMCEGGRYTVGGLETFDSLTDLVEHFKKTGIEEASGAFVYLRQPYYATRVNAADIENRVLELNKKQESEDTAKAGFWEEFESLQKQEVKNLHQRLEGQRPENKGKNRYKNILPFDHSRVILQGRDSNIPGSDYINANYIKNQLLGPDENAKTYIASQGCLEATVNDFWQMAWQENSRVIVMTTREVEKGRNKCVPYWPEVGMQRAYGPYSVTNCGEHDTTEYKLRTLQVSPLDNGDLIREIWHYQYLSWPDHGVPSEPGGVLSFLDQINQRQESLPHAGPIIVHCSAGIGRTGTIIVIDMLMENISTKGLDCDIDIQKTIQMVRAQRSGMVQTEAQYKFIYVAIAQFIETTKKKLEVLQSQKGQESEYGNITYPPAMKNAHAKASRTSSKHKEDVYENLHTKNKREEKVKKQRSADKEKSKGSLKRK

Take `O=C(O)c1ccc(/C=C/c2cc(Br)c(O)c(C(=O)O)c2)cc1O`: the IC50 in data set [1] came to 64 µM.
As to `COc1cc(/C=C/c2cc(Br)c(O)c(C(=O)O)c2)ccc1/C=C/c1cc(Br)c(O)c(C(=O)O)c1`, the IC50 came to 32 µM in [2]; 21 µM in [3]; 12 µM in data set [4]; 6 µM in [1]; 420 µM in data set [5]; 10 µM in data set [6].
As to `O=C(O)c1cc(/C=C/c2ccccc2)cc(Br)c1O`, the IC50 in [2] was 173 µM; in data set [3], 153 µM; in data set [4], 91 µM; in data set [1], 30 µM; in [5] it was greater than 1000 µM; in [6], 140 µM.
`O=C(O)c1cc(/C=C/c2cc(C(=O)O)c(O)c(-c3ccccc3)c2)ccc1O` came in with an IC50 in data set [1] of 125 µM.
`COc1c(C(=O)O)cc(/C=C/c2ccc(C(=O)O)c(O)c2)cc1-c1ccco1` yielded a half-maximal inhibitory concentration (IC50) in data set [1] of 194 µM.
For `O=C(O)c1cc(-c2ccccc2)cc(Cc2cc(-c3ccccc3)cc(C(=O)O)c2O)c1O`, the IC50 in data set [3] was 86 µM; in data set [5] it was greater than 2000 µM.
In turn, `Oc1ccc(/C=C/c2cc(O)cc(O)c2)cc1` [RESVERATROL] displayed an IC50 in [1] greater than 1000 µM.
Consider `O=C(O)c1cc(/C=C/c2ccccc2)ccc1O`, for which the IC50 in [2] is 234 µM; in [3] it was 114 µM; in data set [4], 61 µM; in [1], 34 µM; in data set [5], greater than 2000 µM; in data set [6], 126 µM.
Regarding `O=C(O)c1cc(Cc2cc(C(=O)O)c(O)c(-c3ccccc3)c2)cc(-c2ccccc2)c1O`, the IC50 in data set [3] is 234 µM; in [5], greater than 2000 µM.
Regarding `O=C(O)c1cc(/C=C/c2ccc(/C=C/c3cc(Br)c(O)c(C(=O)O)c3)cc2)cc(Br)c1O`, the Activity result in the data set on Mus musculus [7], in the data set on Mus musculus [10] and in the data set on Mus musculus [11] was “Non-toxic” each time. Further, the outcome with Mus musculus [8] and with Mus musculus [9] was Active. For the same compound, the IC50 is 37 µM in [2]; 13 µM in data set [3]; 10 µM in [4]; 3 µM in data set [1]; greater than 300 µM in data set [5]; 15 µM in data set [6].
As to `O=C(O)c1cc(/C=C/c2ccccc2)cc(-c2ccccc2)c1O`, the IC50 in [2] was 173 µM; in data set [3], 59 µM; in data set [4], 44 µM; in data set [1], 13 µM; in [5], greater than 1000 µM; in data set [6], 78 µM.
As for `O=C(O)c1cc(/C=C/c2ccc(/C=C/c3ccc(O)c(C(=O)O)c3)cc2)ccc1O`, the IC50 is 27 µM in [2]; 20 µM in data set [3]; 13 µM in data set [4]; 5 µM in [1]; 413 µM in data set [5]; 19 µM in data set [6].
As to `O=C(O)c1cc(/C=C/c2ccc(/C=C/c3cc(C(=O)O)c(O)c(-c4ccco4)c3)cc2)cc(-c2ccco2)c1O`, the IC50 in [2] was 8 µM; in data set [3] it was 7 µM; in data set [4], 5 µM; in [1], 0.53 µM; in data set [5], greater than 200 µM; in data set [6] it was 6 µM.
On to `COc1cc(/C=C/c2cc(C(=O)O)c(O)c(-c3ccco3)c2)ccc1/C=C/c1cc(C(=O)O)c(O)c(-c2ccco2)c1`, for which the IC50 in data set [2] worked out at 11 µM; in [3], 10 µM; in data set [4] it was 5 µM; in data set [1] it was 4 µM; in data set [5] it was 162 µM; in [6], 6 µM.
As to `O=C(O)c1ccc(/C=C/c2ccc(O)c(C(=O)O)c2)cc1O`, the IC50 in data set [2] is 567 µM; in data set [3], 370 µM; in data set [4] it was 175 µM; in data set [1] it was 32 µM; in data set [5] it was greater than 2000 µM; in [6], 231 µM.

The values are drawn from ChEMBL document CHEMBL1151791, “Derivatives of 1,4-bis(3-hydroxycarbonyl-4-hydroxyl)styrylbenzene as PTP1B inhibitors with hypoglycemic activity” (Bioorg Med Chem, 2008).
